Source: article PMC3220188 (Nature Communications, 2010)
Converted amounts (≈) assume the structure as drawn. Read-outs that look alike come from different tables or passages of the source. Marks after values point to notes of the source that are not given here.

Legend:
M. tuberculosis H37Rv [1] = format: cell-based, Mycobacterium tuberculosis; conditions: for very rapid ATP depletion in M. tuberculosis: reference compounds, 24 h; for ATP pool depleted: in the presence of glycerol, 24 h after treatment
MTB pMV262-rv0577 = assay: microbe, parasite or virus in culture; format: cell-based; conditions: Mycobacterium tuberculosis, read-out: MTB pMV262-rv0577 MIC50
M. tuberculosis H37Rv [2] = assay: microbe, parasite or virus in culture; format: cell-based, Mycobacterium tuberculosis
in vivo = format: in vivo, CD-1 female mice; conditions: for fAUC/MIC / fT>MIC: corrected for plasma protein binding; for T>MIC: percentage of dosing interval with plasma levels above MIC
in vitro = format: cell-based; conditions: human
[3] = test system: Rv0577, Rv0911, Rv2298 and lldD2; format: binding, M. bovis BCG
M. tuberculosis H37Rv [4] = assay: Metabolomic profiling by LC/MS; format: cell-based, Mycobacterium tuberculosis; conditions: 24 h after treatment, in the presence of glycerol
[5] = Mycobacterium tuberculosis, H37RV, read-out: MTB H37Rv MIC50
[6] = female, CD-1, mouse, in vivo, po, 25 mg/kg
[7] = female, CD-1, mouse, in vivo, po, 100 mg/kg
[8] = mouse, single oral dose 25 mg kg^−1, lung
[9] = Mycobacterium tuberculosis, H37RV

With [H]/N=C(/N)N[C@H]1[C@H](O)[C@@H](O)[C@H](O[C@@H]2O[C@@H](C)[C@](O)(C=O)[C@H]2O[C@@H]2O[C@@H](CO)[C@H](O)[C@@H](O)[C@@H]2NC)[C@@H](N/C(N)=N\[H])[C@@H]1O [Streptomycin, streptomycin, reference compound] the “very rapid ATP depletion in M. tuberculosis” value (M. tuberculosis H37Rv [1]) was “not observed”, the MIC50 (MTB pMV262-rv0577) was 0.12 ± 0.01 µM (≈ 0.0698 µg/mL) and the “activity against M. tuberculosis in the absence of glycerol in the culture medium” value (from here on “activity against M. tuberculosis”) (M. tuberculosis H37Rv [2]) was “comparable”. It also gave an MIC50 (M. tuberculosis H37Rv [2]; [5]) of 0.18 ± 0.02 µM (≈ 0.105 µg/mL).
For COc1c(N2C[C@@H]3CCCN[C@@H]3C2)c(F)cc2c(=O)c(C(=O)O)cn(C3CC3)c12 [moxifloxacin, reference compound], the “very rapid ATP depletion in M. tuberculosis” value (M. tuberculosis H37Rv [1]) was “not observed” and the “activity against M. tuberculosis” value (M. tuberculosis H37Rv [2]) was “comparable”.
Cc1ccc(C(=O)N2CCOCC2)cc1Nc1nccn1-c1cc(NC2CC2)ncn1 [Compound 3, (3-(1-(6-(Cyclopropylamino)pyrimidin-4-yl)-1H-imidazol-2-ylamino)-4-methylphenyl)(morpholino)methanone] gave an AUC (in vivo; [6]) of 12400 ng·h/mL, a Cmax (in vivo; [6]) of 3000 ng/mL and a Tmax (in vivo; [6]) of 0.5 h. For the same molecule, the bioavailability (in vivo; [6]) was 50%, the half-life (in vivo; [6]) was 2.3 h and the AUC (in vivo; [7]) was 59300 ng·h/mL. It also gave a Cmax (in vivo; [7]) of 8900 ng/mL, a Tmax (in vivo; [7]) of 0.5 h and a bioavailability (in vivo; [7]) of 50%. The half-life (in vivo; [7]) was 3 h, the “Lung AUC/MIC” value (in vivo; mouse, 25 mg kg^−1, lung) was 1070.6 and the “Lung T>MIC” value (in vivo; mouse, 25 mg kg^−1, lung) was 100. The fAUC/MIC (in vivo; mouse, 25 mg kg^−1) was 113.7, the “fT>MIC” value (in vivo; mouse, 25 mg kg^−1) was 47% and the “T>MIC” value (in vivo; mouse, 25 mg kg^−1) was 73%. For the same molecule, the “Lung T>MIC” value (in vivo; mouse, 100 mg kg^−1, lung) was 100, the “Lung AUC/MIC” value (in vivo; mouse, 100 mg kg^−1, lung, extrapolated assuming lung exposure proportional to dose) was 4654.8 ^* and the fAUC/MIC (in vivo; mouse, 100 mg kg^−1) was 544.6. For the same molecule, the “fT>MIC” value (in vivo; mouse, 100 mg kg^−1) was 82%, the “T>MIC” value (in vivo; mouse, 100 mg kg^−1) was 100% and the exposure versus dose (in vivo; mouse, 25 and 100 mg kg^−1) was “proportional to dose”. The “Lung AUC” value (in vivo; [8]) was 17.5 µg·h/g, the MIC50 (M. tuberculosis H37Rv [2]; [9]) was 0.036 ± 0.04 µM (≈ 0.0151 µg/mL) and the CC50 (in vitro) was over 50 µM.
With Cc1ccc(NC(=O)c2cccc(NCCN)c2)cc1Nc1nccn1-c1cc(NC2CC2)ncn1 [Compound 4, 3-(2-Aminoethylamino)-N-(3-(1-(6-(cyclopropylamino)pyrimidin-4-yl)-1H-imidazol-2-ylamino)-4-methylphenyl)benzamide] the “binding of candidate proteins to sepharose-linked 4 in the presence of free 4” value [3] was “dramatically decreased” and the MIC50 (M. tuberculosis H37Rv [2]; [9]) was 0.21 ± 0.01 µM (≈ 0.102 µg/mL).
For NNC(=O)c1ccncc1 [Isoniazid, isoniazid, reference compound], the AUC (in vivo; [6]) was 52000 ng·h/mL, the Cmax (in vivo; [6]) was 28000 ng/mL and the “fT>MIC” value (in vivo; mouse, 25 mg kg^−1) was 62%. The “T>MIC” value (in vivo; mouse, 25 mg kg^−1) was 68%, the Tmax (in vivo; mouse, single oral dose 25 mg kg^−1, plasma) was 0.25 h and the MIC50 (MTB pMV262-rv0577) was 0.37 ± 0.05 µM (≈ 0.0507 µg/mL). For the same molecule, the “activity against M. tuberculosis” value (M. tuberculosis H37Rv [2]) was “comparable” and the MIC50 (M. tuberculosis H37Rv [2]; [5]) was 0.42 ± 0.03 µM (≈ 0.0576 µg/mL).
In the case of Cc1ccc(NC(=O)c2ccccc2)cc1Nc1nccn1-c1cc(NC2CCCC2)ncn1 [Compound 1, N-(3-(1-(6-(Cyclopentylamino)pyrimidin-4-yl)-1H-imidazol-2-ylamino)-4-methylphenyl)benzamide], the ATP pool depleted (M. tuberculosis H37Rv [1]) is reported as over 75%, the AUC (in vivo; [6]) is reported as 23400 ng·h/mL and the Cmax (in vivo; [6]) is reported as 4000 ng/mL. For the same molecule, the Tmax (in vivo; [6]) was 1 h, the bioavailability (in vivo; [6]) was 100% and the half-life (in vivo; [6]) was 2.5 h. For the same molecule, the “Lung AUC/MIC” value (in vivo; mouse, 25 mg kg^−1, lung) was 31.2, the “Lung T>MIC” value (in vivo; mouse, 25 mg kg^−1, lung) was 32 and the fAUC/MIC (in vivo; mouse, 25 mg kg^−1) was 8.6. For the same molecule, the “fT>MIC” value (in vivo; mouse, 25 mg kg^−1) was 10%, the “T>MIC” value (in vivo; mouse, 25 mg kg^−1) was 42% and the “Lung AUC” value (in vivo; [8]) was 10.2 µg·h/g. The “accumulation of glycerol phosphate” value (M. tuberculosis H37Rv [4]) was “significant accumulation”, the MIC50 (MTB pMV262-rv0577) was 2.32 ± 0.4 µM (≈ 1.05 µg/mL) and the MIC50 (M. tuberculosis H37Rv [2]; [9]) was 0.75 ± 0.32 µM (≈ 0.34 µg/mL). For the same molecule, the MIC50 (M. tuberculosis H37Rv [2]; [5]) was 0.35 ± 0.1 µM (≈ 0.159 µg/mL) and the CC50 (in vitro) was over 50 µM.
For CC(=O)C=O [methylglyoxal], the MIC50 (M. tuberculosis H37Rv [2]) was 400 µM (≈ 28.8 µg/mL).
Molecule CC[C@@H](CO)NCCN[C@@H](CC)CO [EMB, ethambutol, reference compound] has an AUC (in vivo; [7]) of 8000 ng·h/mL, a Cmax (in vivo; [7]) of 2500 ng/mL and a Tmax (in vivo; [7]) of 0.5 h. The half-life (in vivo; [7]) was 1.8 h, the “Lung AUC” value (in vivo; mouse, 100 mg kg^−1, lung) was 145 µg·h/g and the “Lung AUC/MIC” value (in vivo; mouse, 100 mg kg^−1, lung) was 247. For the same molecule, the fAUC/MIC (in vivo; mouse, 100 mg kg^−1) was 10, the “fT>MIC” value (in vivo; mouse, 100 mg kg^−1) was 15% and the “T>MIC” value (in vivo; mouse, 100 mg kg^−1) was 17%.
In the case of O=P(O)(O)OCC(O)CO (centres unmarked) [glycerol phosphate], the MIC50 (M. tuberculosis H37Rv [2]) is reported as 12500 µM.
Molecule O=C(CO)COP(=O)(O)O [DHAP, dihydroxyacetone phosphate] has an MIC50 (M. tuberculosis H37Rv [2]) of 1200 µM.
c1ccc(-c2nc3cc(Nc4nccn4-c4cc(NC5CCCC5)ncn4)ccc3[nH]2)cc1 [Compound 2, N-(1-(6-(Cyclopentylamino)pyrimidin-4-yl)-1H-imidazol-2-yl)-2-phenyl-1H-benzo[d]imidazol-5-amine] showed an ATP pool depleted (M. tuberculosis H37Rv [1]) of over 75%, an AUC (in vivo; [6]) of 10600 ng·h/mL and a Cmax (in vivo; [6]) of 3800 ng/mL. For the same molecule, the Tmax (in vivo; [6]) was 0.5 h, the bioavailability (in vivo; [6]) was 100% and the half-life (in vivo; [6]) was 2.2 h. The “Lung AUC/MIC” value (in vivo; mouse, 25 mg kg^−1, lung) was 44.8, the “Lung T>MIC” value (in vivo; mouse, 25 mg kg^−1, lung) was 54 and the fAUC/MIC (in vivo; mouse, 25 mg kg^−1) was 17.8. The “fT>MIC” value (in vivo; mouse, 25 mg kg^−1) was 26%, the “T>MIC” value (in vivo; mouse, 25 mg kg^−1) was 38% and the “Lung AUC” value (in vivo; [8]) was 10.7 µg·h/g. For the same molecule, the “accumulation of glycerol phosphate” value (M. tuberculosis H37Rv [4]) was “significant accumulation”, the MIC50 (MTB pMV262-rv0577) was 3.53 ± 1.13 µM (≈ 1.54 µg/mL) and the MIC50 (M. tuberculosis H37Rv [2]; [9]) was 0.57 ± 0.23 µM (≈ 0.249 µg/mL). It also gave an MIC50 (M. tuberculosis H37Rv [2]; [5]) of 0.34 ± 0.11 µM (≈ 0.148 µg/mL) and a CC50 (in vitro) of over 50 µM.
